From patent publication US8808737B2 (Endo Pharmaceuticals Inc., priority 2007, dated 2014)

Legend:
[1] = Example 5: plasma pharmacokinetics of oxymorphone and metabolites after EN3202 in renal impairment vs healthy controls; settings: for Mean bioavailability ratio (90% confidence interval) for AUC relative to controls / Mean bioavailability ratio (90% confidence interval) for Cmax relative to controls: ln-transformed; for AUC in plasma (mean, untransformed) / AUCT in plasma (mean, untransformed) / Cmax in plasma (mean, untransformed) / Tmax in plasma (median) / t½, terminal elimination half-life in plasma (mean): single 20 mg dose of EN3202
Protocol: (§1) Attempts were made to match controls with the renal impaired patients with respect to age, gender, and weight. […] Naltrexone (50 mg) was administered on the evening prior to administration of the EN3202 dose.
In order to protect the subjects from potential opioid-related adverse events, a single 50-mg dose of the opioid antagonist ReVia® (naltrexone HCl) was administered at 20:00 the evening prior to administration of test medication. […] Subjects continued fasting until four (4) hours after dose administration. The subjects remained in an upright posture (sitting or standing) for 1 hour after dose administration. All doses were administered with 240 mL of water (room temperature), and the subjects were instructed to drink all the water.
(§2) Plasma and urine pharmacokinetic variables were calculated from the concentration data using standard, non-compartmental methods as outlined in the following table.
All pharmacokinetic results are summarized using appropriate descriptive statistics. Continuous variables were compared between renally impaired and control groups using appropriate parametric statistics. 90% confidence intervals were calculated for the differences or ratios between the renally impaired and control groups. In addition, the association between oral clearance (and other pharmacokinetic variables) and the severity of renal insufficiency (based on creatinine clearance) was explored.

[2] = Example 5: urinary excretion of oxymorphone and metabolites after EN3202 in renal impairment; settings: for Mean percentage of the administered dose excreted in the urine / Mean urinary elimination half-life: EN3202 20 mg; for Mean percentage of the administered dose excreted in the urine: 0-120 hours; for Mean (SD) Ratio of Metabolite/Parent Excreted in Urine: parent = oxymorphone; for Mean (SD) Percent of Dose Recovered in Urine (0-120 hours): single oral 20-mg dose of EN3202
Protocol: as §1
Each subject was to be instructed to void at the end of each interval (so that each collection interval began with an empty bladder). The void prior to administration of the test medication (time 0) served as the pre-dose blank and was not be included in the collection container.
as §2

[3] = Example 5: correlation of oxymorphone and metabolite plasma AUC / oral clearance with creatinine clearance; format: in vivo, human; settings: linear regression
Text: Creatinine clearance (ClCR) was estimated at screening using the following Cockroft and Gault^8 equation: […]
All pharmacokinetic results are summarized using appropriate descriptive statistics.
The potential association between plasma AUC and creatinine clearance was explored using linear regression techniques and the results are summarized in Table 36 and FIG. 16.

[4] = EN3202 20 mg, mild renal impairment
[5] = EN3202 20 mg, moderate renal impairment
[6] = EN3202 20 mg, severe renal impairment
[7] = Healthy Controls, listed as oxymorphone-3-glucuronide
[8] = Severe Impairment, listed as oxymorphone-3-glucuronide
[9] = subjects with mild renal impairment
[10] = subjects with moderate renal impairment
[11] = subjects with severe renal impairment
[12] = AUC normalized for body weight vs creatinine clearance
[13] = plasma AUC vs creatinine clearance

CN1CC[C@]23c4c5ccc(O[C@@H]6O[C@H](C(=O)O)[C@@H](O)[C@H](O)[C@H]6O)c4O[C@H]2C(=O)CC[C@@]3(O)[C@H]1C5 [Oxymorphone-3-glucuronide, oxymorphone-3-glucuronide]
Mean plasma metabolite:oxymorphone ratio of AUC values (molar units) ([1]; EN3202 20 mg, healthy controls): 94.1
Mean plasma metabolite:oxymorphone ratio of AUC values (molar units) [1, 4]: 132.3
Mean bioavailability ratio (90% confidence interval) for AUC relative to controls [1, 4]: 1.7960 (1.3071-2.4677)
Mean bioavailability ratio (90% confidence interval) for Cmax relative to controls [1, 4]: 1.5769 (1.2146-2.0473)
Mean plasma metabolite:oxymorphone ratio of AUC values (molar units) [1, 5]: 191.4
Mean bioavailability ratio (90% confidence interval) for AUC relative to controls [1, 5]: 3.1196 (2.2704-4.2863)
Mean bioavailability ratio (90% confidence interval) for Cmax relative to controls [1, 5]: 1.9830 (1.5274-2.5745)
Mean plasma metabolite:oxymorphone ratio of AUC values (molar units) [1, 6]: 505.6
Mean bioavailability ratio (90% confidence interval) for AUC relative to controls [1, 6]: 9.0701 (6.6013-12.462)
Mean bioavailability ratio (90% confidence interval) for Cmax relative to controls [1, 6]: 3.1422 (2.4202-4.0795)
Mean increase in plasma AUC values relative to healthy controls ([1]; EN3202 20 mg, subjects with creatinine clearance values, 30 mL/min): ~9.7 fold
AUC in plasma (mean, untransformed) ([1]; Healthy Controls): 2439.7 ng·h/mL
AUCT in plasma (mean, untransformed) ([1]; Healthy Controls): 2309.5 ng·h/mL
Cmax in plasma (mean, untransformed) ([1]; Healthy Controls): 170.1 ng/mL
Tmax in plasma (median) ([1]; Healthy Controls): 3.0 h
t½, terminal elimination half-life in plasma (mean) ([1]; Healthy Controls): 9.53 h
AUC in plasma (mean, untransformed) [1, 7]: 2440 ng·h/mL
Cmax in plasma (mean, untransformed) [1, 7]: 170 ng/mL
t½, terminal elimination half-life in plasma (mean) [1, 7]: 9.5 h
AUC in plasma (mean, untransformed) ([1]; Mild Impairment): 4468.6 ng·h/mL
AUCT in plasma (mean, untransformed) ([1]; Mild Impairment): 4330.7 ng·h/mL
Cmax in plasma (mean, untransformed) ([1]; Mild Impairment): 280.2 ng/mL
Tmax in plasma (median) ([1]; Mild Impairment): 3.5 h
t½, terminal elimination half-life in plasma (mean) ([1]; Mild Impairment): 10.23 h
AUC in plasma (mean, untransformed) ([1]; Moderate Impairment): 8129.7 ng·h/mL
AUCT in plasma (mean, untransformed) ([1]; Moderate Impairment): 7959.9 ng·h/mL
Cmax in plasma (mean, untransformed) ([1]; Moderate Impairment): 359.7 ng/mL
Tmax in plasma (median) ([1]; Moderate Impairment): 4.5 h
t½, terminal elimination half-life in plasma (mean) ([1]; Moderate Impairment): 11.10 h
AUC in plasma (mean, untransformed) ([1]; Severe Impairment): 23604.2 ng·h/mL
AUCT in plasma (mean, untransformed) ([1]; Severe Impairment): 22313.6 ng·h/mL
Cmax in plasma (mean, untransformed) ([1]; Severe Impairment): 547.7 ng/mL
Tmax in plasma (median) ([1]; Severe Impairment): 11.0 h
t½, terminal elimination half-life in plasma (mean) ([1]; Severe Impairment): 22.09 h
AUC in plasma (mean, untransformed) [1, 8]: 23604 ng·h/mL
Cmax in plasma (mean, untransformed) [1, 8]: 548 ng/mL
t½, terminal elimination half-life in plasma (mean) [1, 8]: 22.1 h
Mean percentage of the administered dose excreted in the urine ([2]; healthy controls): 37.16%
Mean percentage of the administered dose excreted in the urine ([2]; severe renal impairment): 38.35%
Mean urinary elimination half-life ([2]; healthy controls): 12.7 h
Mean urinary elimination half-life ([2]; mild renal impairment): 9.8 h
Mean urinary elimination half-life ([2]; moderate renal impairment): 12.8 h
Mean urinary elimination half-life ([2]; severe renal impairment): 36.6 h
Mean (SD) Ratio of Metabolite/Parent Excreted in Urine ([2]; healthy controls): 51.78 (16.89)
Mean (SD) Percent of Dose Recovered in Urine (0-120 hours) ([2]; healthy controls): 37.16 (14.94) %
Mean (SD) Ratio of Metabolite/Parent Excreted in Urine [2, 9]: 72.17 (48.36)
Mean (SD) Percent of Dose Recovered in Urine (0-120 hours) [2, 9]: 44.36 (8.72) %
Mean (SD) Ratio of Metabolite/Parent Excreted in Urine [2, 10]: 70.62 (37.69)
Mean (SD) Percent of Dose Recovered in Urine (0-120 hours) [2, 10]: 38.87 (8.63) %
Mean (SD) Ratio of Metabolite/Parent Excreted in Urine [2, 11]: 112.44 (40.45)
Mean (SD) Percent of Dose Recovered in Urine (0-120 hours) [2, 11]: 38.35 (13.10) %
AUC/wt vs. CLCR: R-square [3, 12]: 0.4911
AUC/wt vs. CLCR: Slope [3, 12]: −1.4140
AUC vs. CLCR: R-square [3, 13]: 0.4976
AUC vs. CLCR: Slope [3, 13]: −221.43
